US10765654B2, “Methods and compounds for treating cancer” (University of Vermont and State Agricultural College, priority 2011, dated 2020)
Peptide text beside a SMILES is read from it.

Experiments:
Assay type in all cases: cell-based, human
ASPA in OG35 cells = assay: Immunocytochemistry of ASPA localization after NAA or NAAG; settings: 100 μM NAA or 10 μM NAAG; 5 days in DM; OG35 (primarily nuclear)
Method: (§1) Immunocytochemistry was performed as described (Perez-Martinez & Jaworski (2005) J Neurosci 25:4917-29). Briefly, OG33 and OG35 cells were plated into differentiaion medium (DMEM, 10% FBS), fixed with 2% paraformaldehyde, and ASPA expression localized immunocytochemically using rabbit anti-mouse ASPA (1,500×) (Madhavarao et al., 2004 Comp Neurol 472:318-29) and Cy-3 conjugated secondary antibody (500×; Jackson ImmunoResearch, West Grove, Pa.).

ASPA in OG33 cells [1] = assay: as above; settings: 100 μM NAA or 10 μM NAAG; 5 days in DM; OG33 (cytosolic)
Method: as §1

ASPA in OG33 cells [2] = assay: Western blot of ASPA expression; settings: NAA and NAAG treatment (not shown)
Method: SDS-PAGE (25 μg protein from whole cell lysates) and western blotting were performed as previously described (Lluri et al. 2008 Exp Cell Res 314:11-24). Cytosol and nuclear fractions were isolated according to standard protocols. Antibodies: rabbit anti-mouse ASPA (2,000×), (Madhavarao et al. 2004 Comp Neurol 472:318-29) rabbit anti-human ASPA (5,000×; GTX1338; GeneTex, Irvine, Calif.), goat anti-human actin (1,000×, sc-1616, Santa Cruz Biotechnology, Santa Cruz, Calif.), rabbit anti-human GAPDH (5,000×, sc-25778, Santa Cruz Biotechnology, Santa Cruz, Calif.), mouse anti-human histone H1 (250×, sc-8030; Santa Cruz Biotechnology, Santa Cruz, Calif.). Species-specific HRP—(3,000×) conjugated secondary antibodies were obtained from Jackson ImmunoResearch (West Grove, Pa.). Immunocomplexes were visualized by enhanced chemiluminescence (PerkinElmer Life Sciences; Boston, Mass.) and densitometry performed using Quantity One software (Bio-Rad; Hercules, Calif.).
SDS-PAGE (25 μg protein from whole cell lysates) and western blotting were performed as previously described in Example 1.

[3] = test system: OG35 oligodendroglioma stem cells; assay: Cell cycle profile by propidium iodide staining and flow cytometry; settings: 100 μM NAA or 10 μM NAAG
Method: (§2) Cell cycle profiles were visualized by propidium iodide (PI) staining as previously described (Perez-Martinez & Jaworski (2005) J Neurosci 25:4917-29). OG35, OG33 and mouse neural stem cells were grown in stem cell medium (SCM; DMEM/F12, B27, 20 ng/ml ea bFGF & EGF) while the oligodendrocyte progenitor cell line, Oli-neu (Jung et al. (1995) Eur J Neurosci 7:1245-65) was grown in Sato's medium (DMEM supplemented with 100 μg/ml apotransferrin, 5 μg/ml insulin, 60 nM triiodothyronine, 30 nM sodium selenite, 100 μM putrescine, 1% horse serum, and 25 μg/ml G418). […] after 0.25% (v/v) GTA treatment, cells were trypsinized, recovered by centrifugation, re-suspended (10^6 cells/ml) in a low-salt PI solution ([…] polyethylene glycol PEG 8000, […], 180 U/ml RNase A, 0.1% Triton X-100, and 4 mM sodium citrate), and incubated at 37° C. for 20 minutes. After addition of an equal volume of high-salt PI solution ([…] polyethylene glycol PEG 8000, […], 180 U/ml RNase A, 0.1% Triton X-100, and 400 mM NaCl) and incubation at 4° C. for 1 hour, cell cycle profiles were recorded by flow cytometry (BD LSR 11 Flow Cytometer, BD Biosciences; Franklin Lakes, N.J.).

[4] = test system: OG33 oligodendroglioma stem cells; assay: as above; settings: 100 μM NAA or 10 μM NAAG
Method: as §2

[5] = test system: OG35 oligodendroglioma stem cells; assay: Growth dynamics, trypan blue exclusion and manual counting; settings: 100 μM NAA or 10 μM NAAG; stem cell medium (SCM) and differentiation medium (DM); later time points up to 5 days
Method: (§3) Stem cell spheres from two oligodendroglioma stem cell lines (OG33 and OG35) were plated (at 10,000 cells per well of a 24-well plate) in the absence or presence of 100 μM N-acetylaspartate (NAA) or 10 μM N-acetylaspartylglutamate (NAAG) in stem cell medium (SCM) containing DMEM/F12 (Gibco/Life Technologies, Grand Island, N.Y.), B27 supplement (Gibco/Life Technologies, Grand Island, N.Y.), and 20 ng/ml each basic fibroblast growth factor (bFGF) and epidermal growth factor (EGF), or differentiation medium (DM) containing DMEM, 10% FBS. Medium, with fresh drug, was replenished every 48 hours. Growth dynamics were assessed using trypan blue exclusion and manual counting 1, 3, and 5 days after plating.

[6] = test system: OG33 oligodendroglioma stem cells; assay: as above; settings: 100 μM NAA or 10 μM NAAG; SCM and DM; later time points up to 5 days
Method: as §3

Structure (SMILES) | ASPA spatial localization (ASPA in OG35 cells) | ASPA spatial localization (ASPA in OG33 cells [1]) | Expression of novel 26 kDa ASPA species (ASPA in OG33 cells [2]) | OG35 growth by flow cytometric cell cycle analysis (cells in G2/M and G0/G1) [3] | OG33 cell number by flow cytometric cell cycle analysis [4] | OG35 cell growth (cell number, manual counting) [5] | OG33 cell growth (cell number, manual counting) [6]
CC(=O)N[C@@H](CC(=O)O)C(=O)N[C@@H](CCC(=O)O)C(=O)O [NAAG, N-acetylaspartylglutamate] (Ac-Asp-Glu-OH) | little effect | little effect | induced | promoted OG35 growth | no significant change | increased in SCM and DM | only increased in SCM
CC(=O)N[C@@H](CC(=O)O)C(=O)O [NAA, N-acetylaspartate] | little effect | little effect | induced |  | no significant change | increased in SCM and DM | only increased in SCM
